# Results taken from ChEMBL document CHEMBL5325465, “Identification of small-molecule inhibitors of human MUS81-EME1/2 by FRET-based high-throughput screening” (Bioorg Med Chem, 2023).
# Activity calls are given as the source filed them. The calls are words filed in the database; no cut-off is given here.
# How the values were obtained:
# [1] = molecular target: T1, MUS81-ECE2 (Homo sapiens) (UniProt P0DPD6+Q96NY9); test: Binding affinity to human GST-tagged MUS81-[…] expressed in Escherichia coli BL21(DE3)Rosetta2 cells assessed as Koff by Surface plasmon resonance analysis
# HepG2 [2] = test: Chemosensitivity of bleomycin-treated human HepG2 cells assessed as reduction in cell viability at 0.1 to 100 uM incubated for 24 hrs CCK-8 assay; format: functional, cell-based; conditions: dose 0.1-100 µM
# [3] = molecular target: T2, MUS81-ECE1 (Homo sapiens) (UniProt P42892+Q96NY9); test: Binding affinity to human GST-tagged MUS81-[…] expressed in Escherichia coli BL21(DE3)Rosetta2 cells assessed as Koff by Surface plasmon resonance analysis
# [4] = molecular target: T1, MUS81-ECE2 (Homo sapiens); test: Binding affinity to human GST-tagged MUS81-[…] expressed in Escherichia coli BL21(DE3)Rosetta2 cells assessed as Kon by Surface plasmon resonance analysis
# [5] = molecular target: T2, MUS81-ECE1 (Homo sapiens); test: Binding affinity to human GST-tagged MUS81-[…] expressed in Escherichia coli BL21(DE3)Rosetta2 cells assessed as Kon by Surface plasmon resonance analysis
# HeLa [6] = test: Inhibition of bleomycin-induced DNA-double stranded breaks in human HeLa cells assessed as reduction in gammaH2AX phosphorylation at serine 139 residue at 20 uM incubated for 1 hr by hoechst 33342 staining based immunofluorescence microscopic analysis; format: functional, cell-based
# A549 [7] = test: Chemosensitivity of bleomycin-treated human A549 cells assessed as reduction in cell viability at 0.1 to 100 uM incubated for 24 hrs CCK-8 assay; format: functional, cell-based; conditions: dose 0.1-100 µM
# MUS81-ECE2 [8] = molecular target: T3, MUS81-ECE2 (Homo sapiens, UniProt P0DPD6+Q96NY9); test: Binding affinity to human GST-tagged MUS81-[…] expressed in Escherichia coli BL21(DE3)Rosetta2 cells assessed as dissociation constant by Surface plasmon resonance analysis
# T3 sequence (P0DPD6 whole entry): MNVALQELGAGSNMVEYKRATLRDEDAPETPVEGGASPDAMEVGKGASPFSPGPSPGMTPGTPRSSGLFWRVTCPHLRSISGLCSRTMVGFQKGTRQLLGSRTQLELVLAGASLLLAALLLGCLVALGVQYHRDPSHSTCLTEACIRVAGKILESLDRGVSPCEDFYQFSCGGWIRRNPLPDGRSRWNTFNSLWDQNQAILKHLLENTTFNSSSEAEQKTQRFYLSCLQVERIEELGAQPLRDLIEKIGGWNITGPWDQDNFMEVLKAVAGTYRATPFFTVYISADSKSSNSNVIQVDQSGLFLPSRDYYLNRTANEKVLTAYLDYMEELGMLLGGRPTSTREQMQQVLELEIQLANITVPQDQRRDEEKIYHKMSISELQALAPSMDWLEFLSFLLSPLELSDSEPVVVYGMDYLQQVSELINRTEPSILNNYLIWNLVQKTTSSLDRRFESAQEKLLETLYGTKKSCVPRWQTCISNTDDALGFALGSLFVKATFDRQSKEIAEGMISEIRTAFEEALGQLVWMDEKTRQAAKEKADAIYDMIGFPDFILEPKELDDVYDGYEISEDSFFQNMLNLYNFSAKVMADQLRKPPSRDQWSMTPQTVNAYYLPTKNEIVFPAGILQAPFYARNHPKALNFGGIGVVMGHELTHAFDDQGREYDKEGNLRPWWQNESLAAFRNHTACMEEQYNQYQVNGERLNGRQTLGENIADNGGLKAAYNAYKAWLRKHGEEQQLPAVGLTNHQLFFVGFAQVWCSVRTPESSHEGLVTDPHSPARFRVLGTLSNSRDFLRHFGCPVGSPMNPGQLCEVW
# T3 sequence (Q96NY9 whole entry): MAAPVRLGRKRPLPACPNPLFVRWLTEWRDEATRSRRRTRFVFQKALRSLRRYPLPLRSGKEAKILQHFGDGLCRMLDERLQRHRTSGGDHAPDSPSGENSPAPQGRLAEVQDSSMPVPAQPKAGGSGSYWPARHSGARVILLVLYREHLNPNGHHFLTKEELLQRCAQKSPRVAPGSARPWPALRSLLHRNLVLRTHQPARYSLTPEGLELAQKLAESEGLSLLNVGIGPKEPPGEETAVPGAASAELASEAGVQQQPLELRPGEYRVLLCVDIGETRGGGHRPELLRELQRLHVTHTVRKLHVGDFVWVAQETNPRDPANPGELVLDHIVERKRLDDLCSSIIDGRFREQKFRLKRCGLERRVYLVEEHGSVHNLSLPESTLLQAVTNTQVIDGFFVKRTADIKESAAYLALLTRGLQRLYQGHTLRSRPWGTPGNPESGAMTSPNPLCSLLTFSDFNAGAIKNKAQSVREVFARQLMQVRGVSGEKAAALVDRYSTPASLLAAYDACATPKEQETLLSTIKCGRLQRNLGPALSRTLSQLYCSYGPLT
# HeLa [9] = test: Chemosensitivity of bleomycin-treated human HeLa cells assessed as reduction in cell viability at 0.1 to 100 uM incubated for 24 hrs CCK-8 assay; format: functional, cell-based; conditions: dose 0.1-100 µM
# HeLa [10] = test: Chemosensitivity of cisplatin-treated human HeLa cells assessed as reduction in cell viability at 0.1 to 100 uM incubated for 24 hrs CCK-8 assay; format: functional, cell-based; conditions: dose 0.1-100 µM
# HepG2 [11] = test: Chemosensitivity of cisplatin-treated human HepG2 cells assessed as reduction in cell viability at 0.1 to 100 uM incubated for 24 hrs CCK-8 assay; format: functional, cell-based; conditions: dose 0.1-100 µM
# [12] = molecular target: T2, MUS81-ECE1 (Homo sapiens); test: Inhibition of human GST-tagged MUS81-[…] expressed in Escherichia coli BL21(DE3)Rosetta2 cells using nDS as substrate at 40 uM
# HeLa [13] = test: Inhibition of bleomycin-induced DNA-double stranded breaks in human HeLa cells assessed as reduction in gammaH2AX level by Western blot analysis; format: functional, cell-based
# [14] = molecular target: T2, MUS81-ECE1 (Homo sapiens); test: Inhibition of human GST-tagged MUS81-[…] expressed in Escherichia coli BL21(DE3)Rosetta2 cells using 3' FLAP as substrate at 40 uM
# A549 [15] = test: Chemosensitivity of cisplatin-treated human A549 cells assessed as reduction in cell viability at 0.1 to 100 uM incubated for 24 hrs CCK-8 assay; format: functional, cell-based; conditions: dose 0.1-100 µM
# MUS81-ECE2 [16] = molecular target: T3, MUS81-ECE2; test: Inhibition of human GST-tagged MUS81-[…] expressed in Escherichia coli BL21(DE3)Rosetta2 cells incubated for 15 mins by FRET based assay
# [17] = molecular target: T2, MUS81-ECE1 (Homo sapiens); test: Binding affinity to human GST-tagged MUS81-[…] expressed in Escherichia coli BL21(DE3)Rosetta2 cells at more than 5 uM using nDS as substrate incubated for 30 mins by electrophoretic mobility shift assay
# [18] = molecular target: T2, MUS81-ECE1 (Homo sapiens); test: Inhibition of human GST-tagged MUS81-[…] expressed in Escherichia coli BL21(DE3)Rosetta2 cells using 3' FLAP as substrate incubated for 15 mins by FRET based assay; conditions: dose 0.2-20 µM
# [19] = molecular target: T1, MUS81-ECE2 (Homo sapiens); test: Inhibition of human GST-tagged MUS81-[…] expressed in Escherichia coli BL21(DE3)Rosetta2 cells using 3' FLAP as substrate incubated for 15 mins by FRET based assay; conditions: dose 0.2-20 µM
# MDA-MB-231 [20] = test: Chemosensitivity of bleomycin-treated human MDA-MB-231 cells assessed as reduction in cell viability at 0.1 to 100 uM incubated for 24 hrs CCK-8 assay; format: functional, cell-based; conditions: dose 0.1-100 µM
# [21] = molecular target: T1, MUS81-ECE2 (Homo sapiens); test: Inhibition of human GST-tagged MUS81-[…] expressed in Escherichia coli BL21(DE3)Rosetta2 cells using nHJ as substrate incubated for 15 mins by FRET based assay; conditions: dose 0.2-20 µM
# [22] = molecular target: T2, MUS81-ECE1 (Homo sapiens); test: Inhibition of human GST-tagged MUS81-[…] expressed in Escherichia coli BL21(DE3)Rosetta2 cells using nDS as substrate incubated for 15 mins by FRET based assay; conditions: dose 0.2-20 µM
# [23] = molecular target: T1, MUS81-ECE2 (Homo sapiens); test: Inhibition of human GST-tagged MUS81-[…] expressed in Escherichia coli BL21(DE3)Rosetta2 cells using nDS as substrate incubated for 15 mins by FRET based assay; conditions: dose 0.2-20 µM
# [24] = molecular target: T2, MUS81-ECE1 (Homo sapiens); test: Inhibition of human GST-tagged MUS81-[…] expressed in Escherichia coli BL21(DE3)Rosetta2 cells using nHJ as substrate incubated for 15 mins by FRET based assay; conditions: dose 0.2-20 µM
# MDA-MB-231 [25] = test: Chemosensitivity of cisplatin-treated human MDA-MB-231 cells assessed as reduction in cell viability at 0.1 to 100 uM incubated for 24 hrs CCK-8 assay; format: functional, cell-based; conditions: dose 0.1-100 µM
Compound,K [1] [s⁻¹],Activity (HepG2 [2]),K [3] [s⁻¹],K [4] [M⁻¹ s⁻¹],K [5] [M⁻¹ s⁻¹],inhibition (HeLa [6]),Kd (MUS81-ECE2 [8]) [µM],Activity (HeLa [9]),Activity (HeLa [10]),Activity (HepG2 [11]),inhibition (HeLa [13]),further results
O=C(N/N=C/c1ccc(O)c(O)c1)c1cc2ccccc2cc1O [DYNASORE],0.005,inactive,0.005,1390,934,inactive,4.18,inactive,inactive,inactive,inactive,Activity (A549 [7]): Active; inhibition [12]: Active; inhibition [14]: Active; Activity (A549 [15]): Active
O=C(N/N=C/c1cc(O)c(O)cc1O)c1cc2ccccc2cc1O,0.003,inactive,0.004,6420,6980,Active,0.605,inactive,inactive,inactive,Active,IC50 (MUS81-ECE2 [16]): 2.9 µM; Activity [17]: Active; inhibition [18]: Dose-Dependent Effect; inhibition [19]: Dose-Dependent Effect; Activity (MDA-MB-231 [20]): Active; inhibition [21]: Dose-Dependent Effect; inhibition [22]: Dose-Dependent Effect; inhibition [23]: Dose-Dependent Effect; inhibition [24]: Dose-Dependent Effect; Activity (MDA-MB-231 [25]): Active
